Test results reported in patent publication US8263598B2, “Substituted sulfonamide compounds” (Gruenenthal GmbH, priority 2008, dated 2012).

Legend:
[1] = biological target: T1, human B1R receptor (hB1R) (Homo sapiens, UniProt P46663); test: FLIPR Ca2+ assay on human bradykinin 1 receptor (CHO K1 hB1R cells); type: cell-based; conditions: test substance 10 μM; CHO K1 cells with human B1R gene; agonist Lys-Des-Arg9-bradykinin 0.5 nM; compared to maximum achievable inhibition
T1 construct: host or cells: CHO K1 cells
T1 sequence (P46663 1-353): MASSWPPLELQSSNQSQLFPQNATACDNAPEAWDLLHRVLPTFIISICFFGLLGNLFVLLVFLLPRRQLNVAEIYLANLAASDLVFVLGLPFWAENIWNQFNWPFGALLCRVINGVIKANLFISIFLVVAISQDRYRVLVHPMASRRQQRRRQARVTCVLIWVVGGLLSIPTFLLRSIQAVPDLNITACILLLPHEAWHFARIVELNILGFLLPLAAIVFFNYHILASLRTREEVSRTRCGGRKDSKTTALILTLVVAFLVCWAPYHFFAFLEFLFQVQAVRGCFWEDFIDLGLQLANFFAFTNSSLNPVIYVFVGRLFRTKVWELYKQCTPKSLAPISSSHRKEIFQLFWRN
Summary of the method: (§1)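 Values are percent inhibition of agonist-evoked Ca²⁺ influx, measured by Fluo-4 fluorescence peak in FLIPR relative to maximum achievable inhibition. Compound at 10 μM was preincubated 10 min on B1R-transfected CHO K1 cells before challenge with 0.5 nM Lys-Des-Arg9-bradykinin (human) or 100 nM Des-Arg9-bradykinin (rat).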

[2] = biological target: T2, B1R receptor of rats (rB1R) (Rattus norvegicus, UniProt P97583); test: FLIPR Ca2+ assay on rat bradykinin 1 receptor (CHO K1 rB1R cells); type: cell-based; conditions: test substance 10 μM; CHO K1 cells with B1R gene of rats; agonist Des-Arg9-bradykinin 100 nM; compared to maximum achievable inhibition
T2 construct: host or cells: CHO K1 cells
T2 sequence (P97583 1-337): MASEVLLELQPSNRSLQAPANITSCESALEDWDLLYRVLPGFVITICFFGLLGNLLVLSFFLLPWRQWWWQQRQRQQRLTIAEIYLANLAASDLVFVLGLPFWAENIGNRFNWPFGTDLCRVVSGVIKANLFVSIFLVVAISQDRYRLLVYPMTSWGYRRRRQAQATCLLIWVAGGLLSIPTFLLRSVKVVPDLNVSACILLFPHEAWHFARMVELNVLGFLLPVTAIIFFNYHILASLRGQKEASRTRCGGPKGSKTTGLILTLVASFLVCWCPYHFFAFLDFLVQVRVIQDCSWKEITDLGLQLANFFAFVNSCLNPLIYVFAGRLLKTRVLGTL
Summary of the method: as §1

| inhibition at 10 µM [1] [%] | inhibition at 10 µM [2] [%] | SMILES |
| --- | --- | --- |
| 100 | 102 | COc1cc(C)c(S(=O)(=O)N(C)CCOCC(=O)N2CCn3cc(-c4ccncc4)nc3C2)c(C)c1 [Example 175, 4-Methoxy-N,2,6-trimethyl-N-(2-(2-oxo-2-(2-(pyridin-4-yl)-5,6-dihydroimidazo[1,2-a]pyrazin-7(8H)-yl)ethoxy)ethyl)benzenesulfonamide] |
| 57 | 96 | COc1cc(C)c(S(=O)(=O)N(CCOCC(=O)N2CCn3cccc3C2c2cccnc2)Cc2ccccc2)c(C)c1C (stereo not drawn) [Example 41, N-benzyl-4-methoxy-2,3,6-trimethyl-N-(2-(2-oxo-2-(1-(pyridin-3-yl)-3,4-dihydropyrrolo[1,2-a]pyrazin-2(1H)-yl)ethoxy)ethyl)benzenesulfonamide] |
| 97 | 100 | O=C(CC(NS(=O)(=O)c1ccc2ccccc2c1)c1ccccc1)N1CCn2c(CN3CCOCC3)ccc2C1 (stereo not drawn) [Example 10, N-(3-(6-(morpholinomethyl)-3,4-dihydropyrrolo[1,2-a]pyrazin-2(1H)-yl)-3-oxo-1-phenylpropyl)naphthalene-2-sulfonamide] |
| 84 | 92 | CCCCC1c2ccc(CN(C)C)n2CCN1C(=O)COCCN(Cc1ccccc1)S(=O)(=O)c1c(C)cc(OC)c(C)c1C (stereo not drawn) [Example 120, N-benzyl-N-(2-(2-(1-butyl-6-((dimethylamino)methyl)-3,4-dihydropyrrolo[1,2-a]pyrazin-2(1H)-yl)-2-oxoethoxy)-ethyl)-4-methoxy-2,3,6-trimethyl-benzenesulfonamide] |
| 75 | 101 | COc1cc(C)c(S(=O)(=O)N(CCOCC(=O)N2CCn3cccc3C2C(C)C)Cc2ccccc2)c(C)c1 (stereo not drawn) [Example 155, N-benzyl-N-(2-(2-(1-isopropyl-3,4-dihydropyrrolo[1,2-a]pyrazin-2(1H)-yl)-2-oxoethoxy)ethyl)-4-methoxy-2,6-dimethylbenzenesulfonamide] |
| 32 | 70 | O=C(CC(NS(=O)(=O)c1ccc2ccccc2c1)c1ccccc1)N1CCn2c(ccc2-c2cccnc2)C1 (stereo not drawn) [Example 167, N-(3-Oxo-1-phenyl-3-(6-(pyridin-3-yl)-3,4-dihydropyrrolo[1,2-a]pyrazin-2(1H)-yl)propyl)naphthalene-2-sulfonamide] |
| 96 | 96 | COc1cc(C)c(S(=O)(=O)N(CCOCC(=O)N2CCn3c(CN(C)C)ccc3C2Cc2ccccc2)Cc2ccccc2)c(C)c1C (stereo not drawn) [Example 118, N-benzyl-N-(2-(2-(1-benzyl-6-((dimethylamino)methyl)-3,4-dihydropyrrolo[1,2-a]pyrazin-2(1H)-yl)-2-oxoethoxy)ethyl)-4-methoxy-2,3,6-trimethylbenzene-sulfonamide] |
| 25 | 78 | COc1cc(C)c(S(=O)(=O)N(CCOCC(=O)N2CCn3cccc3C2CCc2ccccc2)Cc2ccccc2)c(C)c1 (stereo not drawn) [Example 125, N-benzyl-4-methoxy-2,6-dimethyl-N-(2-(2-oxo-2-(1-phenethyl-3,4-dihydropyrrolo[1,2-a]pyrazin-2(1H)-yl)ethoxy)ethyl)benzenesulfonamide] |
| 103 | 102 | COc1cc(C)c(S(=O)(=O)N(CCOCC(=O)N2CCn3c(CN4CCCCC4)ccc3C2c2ccccc2)CC(C)C)c(C)c1C (stereo not drawn) [Example 93, N-isobutyl-4-methoxy-2,3,6-trimethyl-N-(2-(2-oxo-2-(1-phenyl-6-(piperidin-1-ylmethyl)-3,4-dihydropyrrolo[1,2-a]pyrazin-2(1H)-yl)ethoxy)ethyl)benzene-sulfonamide] |
| 30 | 99 | O=C(CC(NS(=O)(=O)c1ccc2ccccc2c1)c1ccccc1)N1CCn2c(CCc3cccnc3)ccc2C1 (stereo not drawn) [Example 171, N-(3-Oxo-1-phenyl-3-(6-(2-(pyridin-3-yl)ethyl)-3,4-dihydropyrrolo[1,2-a]pyrazin-2(1H)-yl)propyl)naphthalene-2-sulfonamide] |
| 102 | 101 | COc1c(C)cc(S(=O)(=O)N(C)CCOCC(=O)N2CCn3c(CN(C)C)ccc3C2Cc2ccccc2)c(C)c1C (stereo not drawn) [Example 109, N-(2-(2-(1-benzyl-6-((dimethylamino)methyl)-3,4-dihydropyrrolo[1,2-a]pyrazin-2(1H)-yl)-2-oxoethoxy)ethyl)-4-methoxy-N,2,3,5-tetramethylbenzene-sulfonamide] |

Continued, molecule first:

| SMILES | inhibition at 10 µM [1] [%] | inhibition at 10 µM [2] [%] |
| --- | --- | --- |
| Cc1cc(C)c(S(=O)(=O)N(C)CCOCC(=O)N2CCn3cccc3C2c2ccc(C)c(C)c2)c(C)c1 (stereo not drawn) [Example 72, N-(2-(2-(1-(3,4-dimethylphenyl)-3,4-dihydropyrrolo[1,2-a]pyrazin-2(1H)-yl)-2-oxoethoxy)ethyl)-N,2,4,6-tetramethylbenzenesulfonamide] | 97 | 71 |
| COc1c(C)cc(S(=O)(=O)N(C)CCOCC(=O)N2CCn3cccc3C2c2cccs2)c(C)c1C (stereo not drawn) [Example 36, 4-methoxy-N,2,3,5-tetramethyl-N-(2-(2-oxo-2-(1-(thiophen-2-yl)-3,4-dihydropyrrolo[1,2-a]pyrazin-2(1H)-yl)ethoxy)ethyl)benzenesulfonamide] | 97 | 85 |
| CCC1c2ccc(CN(C)C)n2CCN1C(=O)COCCN(CC(C)C)S(=O)(=O)c1c(C)cc(OC)c(C)c1C (stereo not drawn) [Example 99, N-(2-(2-(6-((dimethylamino)methyl)-1-ethyl-3,4-dihydropyrrolo[1,2-a]pyrazin-2(1H)-yl)-2-oxoethoxy)ethyl)-N-isobutyl-4-methoxy-2,3,6-trimethylbenzene-sulfonamide] | 102 | 101 |
| COc1ccc(C2c3cccn3CCN2C(=O)COCCN(C)S(=O)(=O)c2c(C)cc(OC)c(C)c2C)cc1 (stereo not drawn) [Example 83, 4-methoxy-N-(2-(2-(1-(4-methoxyphenyl)-3,4-dihydropyrrolo[1,2-a]pyrazin-2(1H)-yl)-2-oxoethoxy)ethyl)-N,2,3,6-tetramethylbenzenesulfonamide] | 101 | 100 |
| CCCCC1c2ccc(CN(C)C)n2CCN1C(=O)COCCN(C)S(=O)(=O)c1c(C)cc(OC)cc1C (stereo not drawn) [Example 134, N-(2-(2-(1-butyl-6-((dimethylamino)methyl)-3,4-dihydropyrrolo[1,2-a]pyrazin-2(1H)-yl)-2-oxoethoxy)ethyl)-4-methoxy-N,2,6-trimethylbenzenesulfonamide] | 104 | 103 |
| Cc1cc(C)c(S(=O)(=O)N(C)CCOCC(=O)N2CCn3cccc3C2c2ccc(C(F)(F)F)cc2F)c(C)c1 (stereo not drawn) [Example 77, N-(2-(2-(1-(2-fluoro-4-(trifluoromethyl)phenyl)-3,4-dihydropyrrolo[1,2-a]pyrazin-2(1H)-yl)-2-oxoethoxy)ethyl)-N,2,4,6-tetramethylbenzenesulfonamide] | 71 | 53 |
| COc1c(C)cc(S(=O)(=O)N(C)CCOCC(=O)N2CCn3cccc3C2c2cccc(C(F)(F)F)c2)c(C)c1C (stereo not drawn) [Example 37, 4-methoxy-N,2,3,5-tetramethyl-N-(2-(2-oxo-2-(1-(3-(trifluoromethyl)phenyl)-3,4-dihydropyrrolo[1,2-a]pyrazin-2(1H)-yl)ethoxy)ethyl)benzenesulfonamide] | 38 | 72 |
| COc1ccc(C2c3cccn3CCN2C(=O)COCCN(CC(C)C)S(=O)(=O)c2c(C)cc(OC)c(C)c2C)cc1 (stereo not drawn) [Example 22, N-isobutyl-4-methoxy-N-(2-(2-(1-(4-methoxyphenyl)-3,4-dihydropyrrolo[1,2-a]pyrazin-2(1H)-yl)-2-oxoethoxy)ethyl)-2,3,6-trimethylbenzenesulfonamide] | 53 | 97 |
| COc1cc(C)c(S(=O)(=O)N(CCOCC(=O)N2CCn3cccc3C2c2cccs2)CC(C)C)c(C)c1C (stereo not drawn) [Example 25, N-isobutyl-4-methoxy-2,3,6-trimethyl-N-(2-(2-oxo-2-(1-(thiophen-2-yl)-3,4-dihydropyrrolo[1,2-a]pyrazin-2(1H)-yl)ethoxy)ethyl)benzenesulfonamide] | 55 | 98 |
| COc1cc(C)c(S(=O)(=O)N(C)CCOCC(=O)N2CCn3cccc3C2C(C)(C)C)c(C)c1C (stereo not drawn) [Example 79, N-(2-(2-(1-tert-butyl-3,4-dihydropyrrolo[1,2-a]pyrazin-2(1H)-yl)-2-oxoethoxy)ethyl)-4-methoxy-N,2,3,6-tetramethylbenzenesulfonamide] | 101 | 100 |
